Several values for one entry are separate records, joined by “and”; a condition that tells them apart may be missing. Identical values can stand only once. Like-named read-outs stand apart in the source and are kept apart here.
How the values were obtained:
furin = biological target: T1, furin (Homo sapiens, UniProt P09958); experiment: Inhibition of furin activity, fluorescent substrate Pyr-RTKR-AMC; assay type: biochemical
T1 construct: made in house

[1] = test system: SARS-CoV2 surrogate viral particles; conditions: human cells; cited from earlier work
[2] = biological target: T2, trypsin from bovine pancreas (Bos taurus, UniProt P00760); experiment: Inhibition of trypsin from bovine pancreas; assay type: biochemical; conditions: at 10 µM; trypsin as model enzyme for TMPRSS2
T2 construct: from tissue; host or cells: bovine pancreas
T2 sequence (P00760 24-246): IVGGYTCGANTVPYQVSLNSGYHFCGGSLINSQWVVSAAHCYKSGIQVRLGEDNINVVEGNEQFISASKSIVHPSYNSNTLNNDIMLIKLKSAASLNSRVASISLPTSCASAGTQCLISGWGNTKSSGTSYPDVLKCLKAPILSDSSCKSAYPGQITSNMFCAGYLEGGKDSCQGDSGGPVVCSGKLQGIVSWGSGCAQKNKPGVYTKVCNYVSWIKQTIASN

in vivo = conditions: mouse
physchem = conditions: 25 °C, pH 7.2, aqueous buffer
[3] = test system: RAW 264.7 murine monocyte macrophages; assay type: cell-based
anthrax toxin LF/PA = test system: anthrax toxin LF/PA; parameters: species or system Balb/c mice; conditions: mouse, in vivo
hPC2 = biological target: T3, hPC2 (Homo sapiens, UniProt P16519); experiment: Specificity for furin-like PCs: hPC2 inhibition; assay type: biochemical; conditions: Table S2
T3 sequence (P16519 110-638): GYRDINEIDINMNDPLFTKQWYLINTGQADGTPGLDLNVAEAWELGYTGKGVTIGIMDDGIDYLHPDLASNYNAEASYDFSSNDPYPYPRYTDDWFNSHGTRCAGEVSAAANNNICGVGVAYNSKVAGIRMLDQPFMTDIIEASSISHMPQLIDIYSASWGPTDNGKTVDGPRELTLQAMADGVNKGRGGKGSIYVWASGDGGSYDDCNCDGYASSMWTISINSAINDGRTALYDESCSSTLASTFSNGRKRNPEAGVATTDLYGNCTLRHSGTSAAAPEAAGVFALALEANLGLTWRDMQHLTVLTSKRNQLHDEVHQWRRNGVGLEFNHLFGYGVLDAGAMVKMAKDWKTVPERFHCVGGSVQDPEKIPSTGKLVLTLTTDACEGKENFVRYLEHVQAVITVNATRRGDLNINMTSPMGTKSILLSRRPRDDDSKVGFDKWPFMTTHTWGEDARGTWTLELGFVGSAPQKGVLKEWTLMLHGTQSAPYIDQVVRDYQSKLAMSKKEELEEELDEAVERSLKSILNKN

[4] = Toxicity study, I.P. dosing and blood chemistry
Plasma stability by LCMS = conditions: rat plasma, after 60 min incubation
hPC7 = biological target: T4, hPC7 (Homo sapiens, UniProt Q16549); experiment: Specificity for furin-like PCs: hPC7 inhibition; assay type: biochemical; conditions: Table S2
T4 sequence (Q16549 142-785): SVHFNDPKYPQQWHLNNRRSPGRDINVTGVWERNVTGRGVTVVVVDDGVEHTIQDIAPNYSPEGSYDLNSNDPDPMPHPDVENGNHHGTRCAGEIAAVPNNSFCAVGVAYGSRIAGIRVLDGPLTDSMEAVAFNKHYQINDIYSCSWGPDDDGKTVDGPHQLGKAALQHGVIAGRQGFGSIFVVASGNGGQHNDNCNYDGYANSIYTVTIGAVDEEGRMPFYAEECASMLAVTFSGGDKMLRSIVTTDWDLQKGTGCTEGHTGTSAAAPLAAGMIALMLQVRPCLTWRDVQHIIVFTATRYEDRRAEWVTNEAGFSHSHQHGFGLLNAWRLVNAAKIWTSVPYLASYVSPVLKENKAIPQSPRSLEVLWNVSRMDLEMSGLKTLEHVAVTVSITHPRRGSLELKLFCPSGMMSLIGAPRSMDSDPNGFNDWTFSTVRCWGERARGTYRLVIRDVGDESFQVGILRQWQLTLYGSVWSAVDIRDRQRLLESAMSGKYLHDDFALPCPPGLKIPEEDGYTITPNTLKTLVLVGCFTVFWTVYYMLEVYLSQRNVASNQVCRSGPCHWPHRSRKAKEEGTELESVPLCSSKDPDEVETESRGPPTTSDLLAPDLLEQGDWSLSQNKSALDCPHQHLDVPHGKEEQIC

hPC1/3 = biological target: T5, hPC1/3 (Homo sapiens, UniProt P29120); experiment: Inhibition of hPC1/3 activity, fluorescent substrate Pyr-RTKR-AMC; assay type: biochemical
T5 sequence (P29120 111-753): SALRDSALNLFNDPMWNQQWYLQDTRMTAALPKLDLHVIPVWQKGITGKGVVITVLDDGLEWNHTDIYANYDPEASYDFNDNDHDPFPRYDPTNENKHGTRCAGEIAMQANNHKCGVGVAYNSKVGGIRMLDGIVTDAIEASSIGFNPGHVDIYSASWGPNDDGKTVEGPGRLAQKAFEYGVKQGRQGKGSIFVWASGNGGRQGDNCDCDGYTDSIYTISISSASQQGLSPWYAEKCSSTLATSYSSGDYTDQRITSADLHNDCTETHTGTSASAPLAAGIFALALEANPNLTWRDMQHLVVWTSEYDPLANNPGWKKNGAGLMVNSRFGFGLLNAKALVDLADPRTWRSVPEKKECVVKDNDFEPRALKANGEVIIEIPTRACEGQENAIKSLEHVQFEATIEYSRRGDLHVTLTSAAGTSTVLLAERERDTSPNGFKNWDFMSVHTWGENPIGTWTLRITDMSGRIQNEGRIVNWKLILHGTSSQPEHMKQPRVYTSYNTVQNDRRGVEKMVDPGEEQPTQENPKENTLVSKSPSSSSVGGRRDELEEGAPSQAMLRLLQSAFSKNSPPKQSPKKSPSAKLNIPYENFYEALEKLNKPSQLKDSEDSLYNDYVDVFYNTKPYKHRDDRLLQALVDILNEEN

[5] = mouse, in vivo, 30 mg/kg

T1 sequence (P09958 108-794): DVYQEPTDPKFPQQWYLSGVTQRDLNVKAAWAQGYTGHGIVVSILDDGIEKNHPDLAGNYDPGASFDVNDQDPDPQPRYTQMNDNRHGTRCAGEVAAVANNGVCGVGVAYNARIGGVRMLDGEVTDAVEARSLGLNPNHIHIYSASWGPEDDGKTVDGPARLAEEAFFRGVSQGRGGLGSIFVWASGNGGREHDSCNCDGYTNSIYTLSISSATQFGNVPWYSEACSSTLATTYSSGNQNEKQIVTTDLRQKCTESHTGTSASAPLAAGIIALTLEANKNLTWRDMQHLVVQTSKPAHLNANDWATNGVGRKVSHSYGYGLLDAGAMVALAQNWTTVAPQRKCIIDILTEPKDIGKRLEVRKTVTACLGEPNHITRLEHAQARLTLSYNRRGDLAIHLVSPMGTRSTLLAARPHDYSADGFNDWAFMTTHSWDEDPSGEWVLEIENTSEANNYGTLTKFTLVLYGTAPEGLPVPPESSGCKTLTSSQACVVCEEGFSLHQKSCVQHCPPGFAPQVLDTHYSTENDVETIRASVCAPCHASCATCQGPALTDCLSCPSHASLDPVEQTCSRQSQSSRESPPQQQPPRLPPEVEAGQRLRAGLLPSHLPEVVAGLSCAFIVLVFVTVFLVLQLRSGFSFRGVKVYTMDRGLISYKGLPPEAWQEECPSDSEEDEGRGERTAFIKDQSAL

CN(C)C(=O)COC(=O)Cc1ccc(OC(=O)c2ccc(NC(=N)N)cc2)cc1 [camostat]
inhibition of furin (in words) (furin): poor furin inhibitor | inhibition of furin (in words) (furin; listed as camostat mesylate): did not appreciably inhibit furin | concentrations that attenuated (only partially) entry of SARS-CoV2 surrogate viral particles [1]: 10 to 50 µM

CC(=O)N[C@@H](CCCNC(=N)N)C(=O)N[C@H](C(=O)N[C@@H](Cc1ccc(N=C(N)N)cc1)C(=O)NCc1ccc(C(=N)N)cc1)C(C)C [compound 1]
IC50 (furin): 9 nM | inhibition of trypsin [2]: can inhibit this enzyme | bioavailability (in vivo; %F I.P./I.V.): ~100% | bioavailability (in vivo; %F P.O./I.V.): < 1% | AUC (in vivo; ip, 3 mg/kg): 2600 ng·h/mL | AUC (in vivo; iv, 1 mg/kg): 870 ng·h/mL | AUC (in vivo; po, 30 mg/kg): 26 ng·h/mL | solubility (physchem): > 1000 µM | EC50 protection of RAW macrophages from LF/PA-induced cell death [3]: low micromolar range | MST (median survival time) (anthrax toxin LF/PA): 31.5 h and 52.5 h | TTD (time to death) (anthrax toxin LF/PA): 48 h and 96 h | IC50 (hPC2): 1860 nM | other blood chemistry values ([4]; 5 min after single 20 mg/kg injection): normal | acute toxicity, blood chemistry finding ([4]; 5 min after single 20 mg/kg injection, compared to control group): gross hemolysis | MTD ([4]; female, Balb/c, mouse, in vivo, ip): ~10 mg/kg | mice that died ([4]; single dose 15 mg/kg I.P., 1 h after compound administration): all mice | mice that died ([4]; single dose 20 mg/kg I.P., 15 min after compound injection): 2 out of 3 | plasma stability, intact (Plasma stability by LCMS): > 86% | IC50 (hPC7): 11800 nM | IC50 (hPC1/3): 3 nM | absorption after oral administration (in words) [5]: insignificant adsorption

Reference: paper PMC7287953, “Potential Therapeutic Targeting of Coronavirus Spike Glycoprotein Priming” (Molecules, 2020)
